{"source": "paper PMC9975351", "about": "(Frontiers in Pharmacology, 2023)", "key": {"CYP2A6": {"biological_target": "T1, CYP2A6 (Homo sapiens, UniProt P11509)", "T1 sequence (P11509 1-494)": "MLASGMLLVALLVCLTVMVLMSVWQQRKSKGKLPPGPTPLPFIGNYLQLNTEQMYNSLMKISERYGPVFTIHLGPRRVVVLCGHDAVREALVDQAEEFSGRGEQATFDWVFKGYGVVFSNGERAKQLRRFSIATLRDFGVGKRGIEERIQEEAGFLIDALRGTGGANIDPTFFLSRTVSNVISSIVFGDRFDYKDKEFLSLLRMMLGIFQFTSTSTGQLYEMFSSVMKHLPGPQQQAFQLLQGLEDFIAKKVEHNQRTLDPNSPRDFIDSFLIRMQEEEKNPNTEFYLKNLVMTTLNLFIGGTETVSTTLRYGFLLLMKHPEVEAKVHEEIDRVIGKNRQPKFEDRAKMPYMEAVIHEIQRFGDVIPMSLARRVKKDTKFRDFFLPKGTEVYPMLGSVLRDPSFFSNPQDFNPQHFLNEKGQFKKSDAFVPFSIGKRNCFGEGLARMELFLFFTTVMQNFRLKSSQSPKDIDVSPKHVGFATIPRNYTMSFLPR", "test": "CYP cocktail inhibition assay in pooled HLMs, CYP2A6", "settings": "substrate cocktail", "protocol": "The drug–drug interaction potential was evaluated using a CYP cocktail assay that involved microsomal incubation and NADPH, as described elsewhere ([Lee et al., 2012]). […] The first reactions were initiated by NADPH addition, and each mixture was incubated in a shaking water bath at 37°C for 30 min. The final incubation was performed for 10 min with a total volume of 200 µL by adding substrates (tolbutamide (set B) as a CYP2C9 selective substrate, midazolam (set A) and testosterone (set B) as CYP3A4 selective substrates) and NADPH. The reaction was stopped and quenched by adding 200 µL of ice-cold acetonitrile containing 50 nM CBZ as internal standard, then centrifuged at 3,000 x g for 20 min. The supernatants were injected in LC-QTOF system. IC50 shift values were calculated as the ratio of the IC50 value obtained after pre-incubation without NADPH divided by the IC50 value obtained after 30 min incubation with NADPH.\nThe LC-QTOF system consisted of an Exion AD LC device (AB Sciex, Framingham, MA, United States) and a TripleTOF 6,600 + system (AB Sciex) equipped with an IonDrive Turbo V source operated in positive TOF information-dependent acquisition (IDA) MS2 scan mode. The TOF scan dwell time was 50 ms, and the 20 × IDA MS2 scan time was acquired with a 30-ms dwell time. […]"}, "[1]": {"test": "Metabolic stability and metabolite formation in pooled human liver microsomes with NADPH and/or UDPGA", "assay_type": "in vitro ADME", "settings": "for Concentration remaining, % of the initial concentration: 1 µM, HLMs; for Hepatic clearance CLh / CLint scaled at 1 µM: in vitro-in vivo extrapolation, well-stirred model; for half-life at 1 µM / microsomal CLint at 1 µM / CLint scaled at 1 µM: human, microsomes; for half-life at 1 µM: pH 7.4, 1 µM compound, read-out: Half-life; for microsomal CLint at 1 µM: read-out: Intrinsic clearance (in vitro) Clint; for CLint scaled at 1 µM: read-out: Intrinsic clearance (in vivo) CLint", "protocol": "Microsomal incubation was conducted in triplicate using 0.1 M potassium phosphate buffer (PPB, pH 7.4) in eight-well tube strips in an 8 × 12 rack (1.2 mL; VWR, Emeryville, CA, United States). […] The mixture was pre-incubated at 37°C with shaking at approximately 100 rpm for 5 min. UGT glucuronidation was performed with HLMs (1 mg/mL) and alamethicin (25 μg/mg microsomal protein) in a 100-mM PPB (pH 7.4) solution on ice for 15 min. […] CYP, UGT, and combined reactions were initiated by addition of the NADPH regenerating system, UDPGA (1 mM), and both, respectively. […] The incubation mixtures were then centrifuged at 2,000 × g and 4°C for 20 min, and the supernatants were analyzed by LC-QTOF HRMS.\nThe incubation mixtures were pre-incubated at 37°C in a shaking water bath at approximately 100 rpm for 5 min. Reactions were initiated by the addition of an NADPH-regenerating system. The reaction was terminated, centrifuged then analyzed using the same method described above.\nIn the microsomal stability analysis, degradation half-life (t½) values were calculated using the following equation: t½=0.693/k where k is the first-order degradation rate constant, estimated by one-phase exponential-decay non-linear regression of the degradation time-course data using Graph Pad Prism 8.0 (Graph Pad Software Inc., San Diego, CA, United States). In vitro metabolic stability parameters, microsomal intrinsic clearance (CLint,mic), apparent intrinsic clearance (CL′int), and hepatic clearance (CLh), were calculated according to the well-stirred model approach ([Pang and Rowland, 1977]; [Baranczewski et al., 2006]). The apparent kinetic parameters of GRL0617 metabolism were determined by fitting a one-enzyme Michaelis-Menten equation. […] All data are presented as mean ± SD. Data were compared between groups using the unpaired Student’s t-test. The significance level was set at p < 0.05, unless indicated otherwise."}, "in vitro": {"test": "in vitro", "assay_type": "in vitro ADME, human", "protocol": "Metabolic stability of GRL 0617 and formation of M1 and M3 were evaluated using Silensome control, Silensome CYP2D6 and Silensome CYP3A4 incubated with 1 or 10 µM GRL 0617 in the presence of NADPH. Other metabolites were detected less than 1% of parent. […] CYP2D6 played an exclusive role in the formation of M2, but the reactions were not saturated in the concentration range used in this study and thus, the calculated Kcat, and Km were out of the experiment condition.\nIn addition, the contribution of specific isoform using Silensomes were evaluated, and calculated parameters were shown in Supplemental Figure S4 and Table 4. […] The contribution of specific CYP 3A4 or CYP2D6 was calculated to be 79.6% or 21.8%, respectively, using equation as equation below. Calculated % CYP isoform contribution = CLintcontrol−ClintINH ⁄ CLintcontrol ([Bohnert et al., 2016]).\nincubated in Silensome control, Silensome CYP2D6, and Silensome CYP3A4 with NADPH for 0, 10,\n15, 30, 45, 60, or 120 min. The remaining percentages of GRL 0617 are expressed as mean ± SD (n=3).\n(1 picture or pasted object on this page, not shown here)"}}, "note": "Read-outs that look alike come from different tables or passages of the source.", "data": [{"smiles": "Cc1ccc(N)cc1C(=O)N[C@H](C)c1cccc2ccccc12", "note": "[GRL0617, 5-amino-2-methyl-N-[(1R)-1-(1-naphthalenyl)ethyl]benzamide]", "values": [{"measurement": "Concentrations at which CYP2A6 was inhibited", "setting": "CYP2A6", "result": "≥ 50", "unit": "µM"}, {"measurement": "Half-life", "setting": "[1]; 1 µM compound, 1 mg/mL pooled HLMs with NADPH (phase I)", "result": 26.4, "unit": "min"}, {"measurement": "Concentration remaining, % of the initial concentration", "setting": "[1]; 60 min incubation with NADPH", "result": "44.5% ± 5.3%"}, {"measurement": "Concentration remaining, % of the initial concentration", "setting": "[1]; 60 min incubation with NADPH + UDPGA", "result": "47.2% ± 7.5%"}, {"measurement": "Concentration remaining, % of the initial concentration", "setting": "[1]; 60 min incubation with UDPGA", "result": "93.4% ± 6.1%"}, {"measurement": "Direct UGT glucuronidation", "setting": "[1]; HLM with UDPGA only", "result": "No direct UGT glucuronidation was detected"}, {"measurement": "Hepatic clearance CLh", "setting": "[1]; NADPH + UDPGA", "result": 11.1, "unit": "mL/min/kg"}, {"measurement": "Hepatic clearance CLh", "setting": "[1]; NADPH", "result": 11.7, "unit": "mL/min/kg"}, {"measurement": "half-life at 1 µM", "setting": "[1]; 1 mg/mL pooled HLMs with NADPH (phase I)", "result": "< 30", "unit": "min"}, {"measurement": "half-life at 1 µM", "setting": "[1]; 1 mg/mL pooled HLMs with NADPH + UDPGA (phase I + II)", "result": 29.5, "unit": "min"}, {"measurement": "microsomal CLint at 1 µM", "setting": "[1]; pH 7.4, HLMs with NADPH + UDPGA", "result": 23.5, "unit": "µL/min/mg"}, {"measurement": "microsomal CLint at 1 µM", "setting": "[1]; pH 7.4, HLMs with NADPH", "result": 26.3, "unit": "µL/min/mg"}, {"measurement": "CLint scaled at 1 µM", "setting": "[1]; pH 7.4, NADPH + UDPGA", "result": 24.1, "unit": "mL/min/kg"}, {"measurement": "CLint scaled at 1 µM", "setting": "[1]; pH 7.4, NADPH", "result": 27, "unit": "mL/min/kg"}, {"measurement": "Contribution", "setting": "in vitro; Silensome control (reference)", "result": 100, "unit": "%"}, {"measurement": "half-life at 1 µM", "setting": "in vitro; human, microsomes", "result": 17.4, "unit": "min"}, {"measurement": "microsomal CLint", "setting": "in vitro; human, microsomes, Silensome control with NADPH, read-out: Intrinsic clearance (in vitro) Clint", "result": 39.8, "unit": "µL/min/mg"}]}]}
